# Experiments:
# [1] = tested on: advanced hematologic malignancies with an IDH2 mutation; test: Phase 1/2 study of orally administered COMPOUND A: clinical activity (overall response rate); type: in vivo, human; settings: 44 subjects treated at 100 mg QD; preliminary efficacy data
# Description: This was a Phase 1/2, multicenter, open-label, 3-part (Phase 1 dose escalation, Phase 1 Part 1 Expansion, and Phase 2), safety, PK/PD, and clinical activity evaluation of orally administered COMPOUND A in subjects with advanced hematologic malignancies, for example MDS, that harbor an IDH2 mutation. The study included a dose escalation phase to determine MTD/MAD and/or RP2D, an expansion phase (Part 1) to further evaluate the safety, tolerability, and clinical activity of COMPOUND A, and a Phase 2 to assess the clinical efficacy of COMPOUND A at the RP2D and to further evaluate safety in subjects with refractory and relapsed AML carrying an IDH2 mutation.
# Subjects in the dose escalation phase and Part 1 Expansion had the extent of their disease assessed, including bone marrow biopsies and/or aspirates and peripheral blood, at screening, on C1D15, C2D1, and C3D1, every 28 days (peripheral blood only) or every 56 days (bone marrow biopsies and/or aspirates and peripheral blood) thereafter while on study drug treatment, independent of dose delays and/or dose interruptions, and/or at any time when progression of disease was suspected. Response to treatment and treatment decisions in all subjects was determined by the Investigators based on modified International Working Group (IWG) response criteria or other appropriate response criteria for the malignancy under study. […]
# MDS and mIDH2 [2] = test: Example 3: clinical response to COMPOUND A monotherapy (IWG 2006 MDS criteria), survival; type: in vivo, human
# Description: (§1) Cheson et al., Blood. 108:419-425 (2006). […] Overall survival (OS) was estimated using Kaplan-Meier methods.
# [3] = tested on: subjects with advanced hematologic malignancies with an IDH2 mutation; test: Phase 1/2 study: safety profile (AEs, NCI CTCAE); type: in vivo, human; settings: 100 mg
# Description: (§2) A DLT was defined as outlined below.
# Monitoring of AEs, including determination of DLTs, serious adverse events (SAEs), and AEs leading to discontinuation; safety laboratory parameters; physical examination findings; vital signs; 12-lead ECGs; LVEF; and ECOG PS.
# 2-HG plasma levels = test: Phase 1/2 study: pharmacodynamic response, 2-HG plasma levels; type: in vivo, human
# Description: Dose Escalation Phase: The dose escalation phase utilized a standard “3+3” design. During the dose escalation phase, consented eligible subjects with relapsed or refractory acute myelogenous leukemia (AML), untreated AML≧60 years of age who were not candidates for standard therapy, or myelodysplastic syndrome with refractory anemia with excess blasts were enrolled into sequential cohorts of increasing doses of COMPOUND A not to exceed 650 mg QD dose. Each dose cohort enrolled a minimum of 3 subjects. The first 3 subjects enrolled in each dosing cohort during the dose escalation portion of the study received a single dose of study drug on Day −3 (i.e., 3 days prior to the start of daily dosing) and underwent safety and PK/PD assessments over 72 hours to evaluate drug concentrations and 2-HG and α-KG levels. The next dose of study drug was on Cycle 1 Day 1 (C1D1) at which time daily dosing began. The initial dosing schedule was twice daily (approximately every 12 hours). Based on the emerging data, a once daily dosing schedule also has been implemented. […]
# Subjects in the dose escalation phase and Part 1 Expansion also underwent PK/PD assessments over a 10-hour period on C1D15, C2D1, and C4D1. […] Available bone marrow biopsy samples also were assessed for 2-HG and α-KG levels. […]
# [4] = tested on: patients with MDS and mIDH2; test: Example 3: safety, treatment-emergent adverse events
# Description: Patients were relapsed or refractory to prior MDS therapy (Tx) or were not candidates for standard therapies. […] Evaluable patients required a response assessment at Cycle 2 Day 1 or later, or discontinued before assessment. Overall survival (OS) was estimated using Kaplan-Meier methods. Next-generation sequencing identified pre-existing co-occurring genomic alterations using the FoundationOne Heme test on purified mononuclear cells from BM or PB, to assess relationships between co-mutational status and clinical response.
# MDS and mIDH2 [5] = test: Example 2: clinical response to COMPOUND A monotherapy (IWG 2006 MDS criteria), survival; type: in vivo, human
# Description: as §1
# [6] = tested on: patients with MDS and mIDH2; test: Example 2: safety, treatment-emergent adverse events; type: in vivo, human
# Description: as §2, §1
# [7] = tested on: MDS and mIDH2 with co-occurring gene mutations; test: Example 3: association of co-occurring somatic mutations (FoundationOne Heme panel) with response to COMPOUND A; type: in vivo, human
# Description: as §1
# Analysis of MDS patients for association of gene mutations found with overall response rate (ORR) was performed on patients who received COMPOUND A and where a clinical response was captured for at least one time point during treatment (Table 12). An average of 2.6 genes were mutated in each patient beyond IDH2.
# [8] = 13 patients with prior HMA therapy
# [9] = IWG 2006, denominators reflect eligibility
# [10] = investigator-assessed, evaluable patients had ≧5% bone marrow blasts at baseline
# [11] = programmatically adjudicated per IWG 2006 criteria, denominators reflect eligibility
# [12] = 10 evaluable pts with prior HMA Tx
# [13] = evaluable pts had ≧5% BM blasts at baseline
# [14] = sustained ≧4 weeks, from beginning COMPOUND A Tx
smiles,measurement,setting,value
"CC(C)(O)CNc1nc(Nc2ccnc(C(F)(F)F)c2)nc(-c2cccc(C(F)(F)F)n2)n1.CS(=O)(=O)O [COMPOUND A, mesylate salt of 2-methyl-1-[(4-[6-(trifluoromethyl)pyridin-2-yl]-6-{[2-(trifluoromethyl)pyridin-4-yl]amino}-1,3,5-triazin-2-yl)amino]propan-2-ol]",overall response rate,[1],36.4%
same,patients with a response among patients who had received prior HMA therapy,MDS and mIDH2 [2]; [8],7 patients
same,response rate among patients who had received prior HMA therapy,MDS and mIDH2 [2]; [8],54%
same,HI-E,MDS and mIDH2 [2]; [9],20%
same,"HI-E, patients/eligible",MDS and mIDH2 [2]; [9],3/15
same,HI-N,MDS and mIDH2 [2]; [9],40%
same,"HI-N, patients/eligible",MDS and mIDH2 [2]; [9],4/10
same,HI-P,MDS and mIDH2 [2]; [9],33%
same,"HI-P, patients/eligible",MDS and mIDH2 [2]; [9],4/12
same,Overall response rate (CR + PR + mCR + HI),MDS and mIDH2 [2]; MDS patients N=17,59%
same,"Overall response rate (CR + PR + mCR + HI), responders/evaluable",MDS and mIDH2 [2]; MDS patients N=17,10/17
same,Best response Complete Remission,MDS and mIDH2 [2]; [10],9%
same,"Best response Complete Remission, patients/evaluable",MDS and mIDH2 [2]; [10],1/11
same,Best response Marrow CR,MDS and mIDH2 [2]; [10],27%
same,"Best response Marrow CR, patients/evaluable",MDS and mIDH2 [2]; [10],3/11
same,Best response Partial Remission,MDS and mIDH2 [2]; [10],9%
same,"Best response Partial Remission, patients/evaluable",MDS and mIDH2 [2]; [10],1/11
same,median overall survival,MDS and mIDH2 [2]; median follow-up of 7.5 months,not reached
same,patients with bilineage improvement,MDS and mIDH2 [2]; of patients who attained HI,2 patients
same,patients with trilineage improvement,MDS and mIDH2 [2]; of patients who attained HI,2 patients
same,Any Hematologic Improvement (HI),MDS and mIDH2 [2]; [11],29%
same,"Any Hematologic Improvement (HI), patients/eligible",MDS and mIDH2 [2]; [11],5/17
same,median time to response,MDS and mIDH2 [2]; treated MDS patients,21 days
same,"time to response, range",MDS and mIDH2 [2]; treated MDS patients,10 to 87 days
same,"safety profile, including ≧Grade 3",[3],consistent with that of lower doses
same,inhibition of 2-HG plasma levels,"2-HG plasma levels; most subjects with R140Q mutation, all doses, sustained reduction by Day 1 of Cycle 2",up to 98%
same,exposure and inhibition of 2-HG versus dose,2-HG plasma levels; subjects with R172K mutation,Increasing dose was associated with higher exposure and inhibition of 2-HG
same,Grade 3-4 TEAE Anemia,[4]; MDS patients n=17,18%
same,Grade 3-4 TEAE Dyspnea,[4]; MDS patients n=17,12%
same,Grade 3-4 TEAE Tumor lysis syndrome,[4]; MDS patients n=17,12%
same,Grade 3-4 TEAE hypokalemia,[4]; MDS patients n=17,18%
same,Grade 3-4 TEAE pneumonia,[4]; MDS patients n=17,24%
same,Grade 3-4 TEAE thrombocytopenia,[4]; MDS patients n=17,24%
same,Grade 3-4 treatment-emergent AEs (TEAEs),[4]; MDS patients n=17,82%
same,"Grade 3-4 treatment-emergent AEs (TEAEs), patients",[4]; MDS patients n=17,14 patients
same,"grade 3-4 drug-related TEAE, patients",[4]; MDS patients n=17,Six
same,treatment related deaths,[4]; MDS patients n=17,No treatment related deaths were reported
same,"COMPOUND A-related serious TEAEs, patients","[4]; n=17, tumor lysis syndrome [2], blood bilirubin increased, transaminitis",4 patients
same,Grade 3-4 TEAE Hyperbilirubinemia,"[4]; n=17, unconjugated, includes hyperbilirubinemia and blood bilirubin increased",30%
same,responses in pts with no prior MDS Tx,MDS and mIDH2 [5]; 4 pts with no prior MDS Tx,a PR and mCR (1 each)
same,pts with a response among pts who had received prior HMA Tx,MDS and mIDH2 [5]; [12],5 pts
same,response rate among pts who had received prior HMA Tx,MDS and mIDH2 [5]; [12],50%
same,Best response Hematologic Improvement,MDS and mIDH2 [5]; MDS pts N=16,(27) %
same,"Best response Hematologic Improvement, pts/evaluable",MDS and mIDH2 [5]; MDS pts N=16,4/15
same,"Overall response rate (CR + PR + mCR + HI), responders/evaluable","MDS and mIDH2 [5]; MDS pts N=16, oral 60-300 mg daily, 28-day cycles",8/15
same,Best response Complete Remission,MDS and mIDH2 [5]; [13],(11) %
same,Best response Marrow CR,MDS and mIDH2 [5]; [13],(22) %
same,"Best response Marrow CR, pts/evaluable",MDS and mIDH2 [5]; [13],2/9
same,Best response Partial Remission,MDS and mIDH2 [5]; [13],(11) %
same,"Best response Partial Remission, pts/evaluable",MDS and mIDH2 [5]; [13],1/9
same,Median OS,"MDS and mIDH2 [5]; median follow-up of 4.7 months, Kaplan-Meier",not reached
same,"Median time to CR, PR, or mCR",MDS and mIDH2 [5]; [14],24 days
same,"time to CR, PR, or mCR, range",MDS and mIDH2 [5]; [14],17 to 87 days
same,Median time to HI,MDS and mIDH2 [5]; sustained ≧8 weeks,11 days
same,"time to HI, range",MDS and mIDH2 [5]; sustained ≧8 weeks,11 to 60 days
same,Grade 3-4 TEAE hyperbilirubinemia (unconjugated),[6]; MDS pts N=16,5 n
same,Grade 3-4 TEAE hypokalemia,[6]; MDS pts N=16,3 n
same,Grade 3-4 TEAE pneumonia,[6]; MDS pts N=16,4 n
same,Grade 3-4 TEAE thrombocytopenia,[6]; MDS pts N=16,3 n
same,Grade 3-4 treatment-emergent AEs (TEAEs),[6]; MDS pts N=16,81%
same,"Grade 3-4 treatment-emergent AEs (TEAEs), pts",[6]; MDS pts N=16,13 pts
same,grade 3-4 drug-related TEAE,[6]; MDS pts N=16,44%
same,"grade 3-4 drug-related TEAE, pts",[6]; MDS pts N=16,Seven
same,tolerability of daily oral monotherapy,[6]; MDS pts with mIDH2,well tolerated
same,ORR OR,[7]; ASXL1 mutation,2.500
same,ORR OR,[7]; KRAS mutation,0.214
same,clinical responses (≧HI) by co-occurring mutation,[7]; MDS patients with mIDH2,"observed in the presence of all mutations except TP53, U2AF1, SETBP1, TCF3, STAG2, NRAS, JAK2 and BRAF"
same,mutations enriched in MDS patients with clinical response (≧HI),[7]; MDS patients with mIDH2,"patients with mutations in SRSF2, MPL and ASXL1 are enriched"
same,ORR OR,[7]; MPL mutation,4.231
same,ORR OR,[7]; SETBP1 mutation,0.082
same,ORR OR,[7]; SRSF2 mutation,12.000
same,ORR OR,[7]; TP53 mutation,0.082
same,ORR OR,[7]; U2AF1 mutation,0.082
same,ORR,[7]; patients with ASXL1 mutation,0.714
same,ORR,[7]; patients with KRAS mutation,0.333
same,ORR,[7]; patients with MPL mutation,1.000
same,ORR,[7]; patients with SETBP1 mutation,0.000
same,ORR,[7]; patients with SRSF2 mutation,0.857
same,ORR,[7]; patients with TP53 mutation,0.000
same,ORR,[7]; patients with U2AF1 mutation,0.000

# Reference: patent US20180042930A1, “METHODS OF TREATMENT OF MALIGNANCIES” (Celgene Corporation, priority 2016, published 2018)
